Measured values published in US4613695A, “N-nitroso compounds and compositions containing such compounds” (Aktiebolaget Leo, priority 1982, dated 1986).
Read-outs that look alike come from different tables or passages of the source.

Columns and labels:
[1] = test system: Walker carcinosarcoma 256; assay: Walker carcinosarcoma 256 tumour growth inhibition (single p.o. dose); format: in vivo, Female Sprague Dawley rats; conditions: for ED50: Rattus norvegicus; for activity in the foregoing test (Walker carcinosarcoma 256): dose of 8 mg/kg, preliminary experiments
Excerpt: (§1) A therapeutic index is an indication of the therapeutic usefulness of a compound, and such an index may be defined in various ways. One type of therapeutic index commonly used is the ratio LD50/ED50, wherein LD50 is the dose that causes a 50 percent lethality, and ED50 is the dose that causes a 50 percent reduction of tumour size. Another type of therapeutic index, useful in evaluation of increasing survival time, is the ratio between maximum and minimum effective dose. Both these types of therapeutic indexes are used and given in the experimental results below.
(§2) The manner of administration of the compounds is by the oral (p. o.) route in each case.
(§3) Experimental animals: Female Sprague Dawley rats
(§4) Tumour implants: Tumour pieces with 2-3 mm diameter, implanted subcutaneously
(§5) Therapy: The compound is administered p. o. once on the day after the implantation
Termination: The animals are killed on the 9th day after implantation
(§6) Evaluation: Weight of tumour is determined in test animals and compared with those of control animals. For each compound the LD50 and ED50 dose (as defined above) are determined. The therapeutic index, T. I., (LD50/ED50) is calculated.

in vivo = conditions: rat, po
Excerpt: as §1, §2, §3, §4, §5, §6

Lymphatic leukemia L1210 = Lymphatic leukemia L1210 survival test (survival time increase, long term survival, cure potential); format: in vivo, Female BDF1 mice; conditions: for minimal effective dose: Mus musculus, L1210, po; for T.I.s (long term survival; max.effect.dose/min.effect.dose): long term survival T·100/To >20%; for T.I.s = max.effect.dose/min.effect.dose: survival time increase, t·100/c ≥125%; for Dose or dose range for cure: ≥90% long term survivors on day 60
Procedure: The experimental design and interpretation of the results are in accordance with the standards set by the CCNSC (see reference (16)) and by the DR&D (see reference (17)).
Experimental animals: Female BDF1 mice
Tumour implants: 10^5 tumour cells implanted intraperitoneally (i. p.)
Therapy: The compounds were administered p. o. once on the day following the implantation.
Termination: The animals were killed on the 60th day after the implantation. Living animals on the 60th day are termed long term survivors.
(a) Evaluation of therapeutic dose range for survival time increase: Survival times at various dose levels are determined, and the survival time of the test animals (t) is expressed as the percentage of that of the control animals (c):
The maximum effective dose and the minimum effective dose required to achieve t·100/c≥125% are determined, and a therapeutic index as defined below is calculated:
T. I.s =max.effect.dose/min.effect.dose.
(b) Evaluation of therapeutic dose range for long term survival: Long time survival is determined at various dose levels and is expressed as surviving test animals on day 60 (T) as the percentage of that of the total number of test animals (To):
The maximum effective dose and the minimum effective dose to achieve long term survival T·100/To >20% are determined and a therapeutic index, T. I.1 s is calculated:
T. I.1s =max.effect.dose/min.effect.dose.
(c) Evaluation of cure potential: The normal survival time for test animals receiving no therapeutic treatment is 9-11 days. Surviving test animals on the 60th day after implantation showing no sign of tumour presence are regarded as cured animals. Long term survival is determined as under (b) above, and the effective dose or dose range to achieve a long term survival T·100/To ≥90% is determined as an evaluation of the cure potential.

[2] = po, dose that causes a 50 percent reduction of tumour size, p.o. once, read-out: ED50
[3] = therapeutic index LD50/ED50, p.o.
[4] = 1440 h, >20% long term survivors on day 60, p.o. once, read-out: Minimum effective dose (long term survival)
[5] = median survival time percent of control ≥ 125%, p.o. once, read-out: Minimum effective dose (survival time increase)
[6] = median survival time percent of control ≥ 125%, p.o. once
[7] = >20% long term survivors on day 60, p.o. once

| Structure (SMILES) | ED50 [1, 2] [mg/kg] | T.I. LD50/ED50 [1, 3] | LD50 (in vivo) [mg/kg] | minimal effective dose (Lymphatic leukemia L1210; [4]) [mg/kg] | T.I.s (long term survival; max.effect.dose/min.effect.dose) (Lymphatic leukemia L1210) | minimal effective dose (Lymphatic leukemia L1210; [5]) [mg/kg] | Maximum effective dose (survival time increase) (Lymphatic leukemia L1210; [6]) [mg/kg] | T.I.s = max.effect.dose/min.effect.dose (Lymphatic leukemia L1210) | T.I. LD50/ED50 ([1]; rat, in vivo, po) | Dose or dose range for cure (Lymphatic leukemia L1210; p.o. once) | ED50 ([1]; po) [mg/kg] | activity in the foregoing test (Walker carcinosarcoma 256) ([1]; p.o.) | median survival time percent of control (Lymphatic leukemia L1210; dose of 125 mg/kg, p.o., called significant activity) [%] | Maximum effective dose (long term survival) (Lymphatic leukemia L1210; [7]) | Minimum effective dose (long term survival) (Lymphatic leukemia L1210; [7]) |
| --- | --- | --- | --- | --- | --- | --- | --- | --- | --- | --- | --- | --- | --- | --- | --- |
| O=NN(CCCl)C(=O)NCCS(=O)(=O)NCc1ccccc1 [1:7, 3-(2-/benzylaminosulfonyl/ethyl)-1-(2-chloroethyl)-1-nitrosourea] | 2 | 125 | 250 | 125 | 2 |  |  |  |  |  |  |  |  |  |  |
| CCN(CC)S(=O)(=O)CCNC(=O)N(CCCl)N=O [1:2, 1-(2-chloroethyl)-3-(2-/diethylaminosulfonyl/ethyl)-1-nitrosourea] | 0.4 | 150 | 60 | 63 | 2 | 16 | 125 | 8 |  |  |  |  |  |  |  |
| CN(CCO)S(=O)(=O)CCNC(=O)N(CCCl)N=O [1:15, 1-(2-chloroethyl)-3-(2-/N-2-hydroxyethyl-N-methyl-aminosulfonyl/ethyl)-1-nitrosourea] | 0.6 |  | 90 | 31 | 4 | 16 | 125 | 8 | 150 | 63 mg/kg |  |  |  |  |  |
| O=NN(CCCl)C(=O)NCCCl [BCNU, 1,2-bis-(2-chloroethyl)-nitrosourea, reference compound] | 1 | 50 | 50 | 63 | 1 | 16 | 63 | 4 |  | none |  |  |  |  |  |
| O=P1(N(CCCl)CCCl)NCCCO1 (stereo not drawn) [Cyclophosphamide, reference compound] |  | 30 | 180 |  |  |  |  |  |  |  | 6 |  |  |  |  |
| CN(C)S(=O)(=O)CCCCCNC(=O)N(CCCl)N=O [1:19, 1-(2-chloroethyl)-3-(5-/dimethylaminosulfonyl/pentyl)-1-nitrosourea] | 1 | 250 | 250 | 63 | 2 |  |  |  |  | 125 mg/kg |  |  |  |  |  |
| COCCN(CCS(=O)(=O)N(C)C)C(=O)N(CCCl)N=O [1:48, 1-(2-chloroethyl)-3-(2-methoxyethyl)-3-/2-(dimethylaminosulfonyl)ethyl/-1-nitrosourea] |  |  |  |  |  |  |  |  |  |  |  | significant activity |  |  |  |
| CN(C1CCCCC1)S(=O)(=O)CCNC(=O)N(CCCl)N=O [1:28, 1-(2-chloroethyl)-3-(2-/N-cyclohexyl-N-methylaminosulfonyl/ethyl)-1-nitrosourea] | 2.5 | > 100 | > 250 | 125 | 2 | 31 | 250 | 8 |  | 125 mg/kg |  |  |  |  |  |
| O=NN(CCCl)C(=O)NCCS(=O)(=O)NCCO [1:14, 1-(2-chloroethyl)-3-(2-/2-hydroxyethylaminosulfonyl/ethyl)-1-nitrosourea] | 0.6 | 150 | 90 | 31 | 4 | 16 | 125 | 8 |  | 63 mg/kg |  |  |  |  |  |
| CN(C)S(=O)(=O)CCNC(=O)N(CCCl)N=O [1:1, 1-(2-chloroethyl)-3-/2-(dimethylaminosulfonyl)ethyl/-1-nitrosourea] | 0.25 | 200 | 50 | 31 | 2 | 8 | 63 | 8 |  | 31 to 63 mg/kg |  |  |  |  |  |
| CCN(CCS(=O)(=O)N(C)C)C(=O)N(CCCl)N=O [1:54, 1-(2-chloroethyl)-3-(2-/dimethylaminosulfonyl/ethyl)-3-ethyl-1-nitrosourea] |  |  |  |  |  |  |  |  |  |  |  | significant activity | ≥ 125 |  |  |
| NS(=O)(=O)CCNC(=O)N(CCCl)N=O [1:3, 3-(2-/aminosulfonyl/ethyl)-1-(2-chloroethyl)-1-nitrosourea] | 0.2 | 200 | 40 | 16 | 2 |  |  |  |  |  |  |  |  |  |  |
| CCCN(CC)S(=O)(=O)CCNC(=O)N(CCCl)N=O [1:53, 1-(2-chloroethyl)-3-(2-/N-ethyl-N-propylaminosulfonyl/ethyl)-1-nitrosourea] | 1.7 |  |  | 125 | 2 | 31 | 500 | 16 |  | 125 to 150 mg/kg |  |  |  |  |  |
| CC1CCC(NC(=O)N(CCCl)N=O)CC1 (stereo not drawn) [Methyl-CCNU, 1-(2-chloroethyl)-3-(4-methyl-cyclohexyl)-1-nitrosourea, reference compound] |  |  |  |  | none | 8 | 31 | 4 |  |  |  |  |  | none | none |
| CNS(=O)(=O)CCNC(=O)N(CCCl)N=O [1:5, 1-(2-chloroethyl)-3-(2-/methylaminosulfonyl/ethyl)-1-nitrosourea] | 0.25 | 160 | 40 |  |  | 8 | 63 | 8 |  | 31 mg/kg |  |  |  |  |  |
| O=NN(CCCl)C(=O)NCCS(=O)(=O)N1CCCCC1 [1:4, 1-(2-chloroethyl)-1-nitroso-3-(2-/1-piperidinosulfonyl/ethyl)-urea] | 1 | 125 | 125 | 31 | 4 | 8 | 125 | 16 |  | 125 mg/kg |  |  |  |  |  |
| CCN(C)S(=O)(=O)CCNC(=O)N(CCCl)N=O [1:52, 1-(2-chloroethyl)-3-(2-/N-ethyl-N-methylaminosulfonyl/ethyl)-1-nitrosourea] |  |  |  | 31 | 2 |  |  |  |  |  |  | significant activity |  |  |  |
| CCCN(CCC)S(=O)(=O)CCNC(=O)N(CCCl)N=O [1:6, 1-(2-chloroethyl)-3-(2-/dipropylaminosulfonyl/ethyl)-1-nitrosourea] | 2 | 125 | 250 |  |  | 31 | 250 | 8 |  | 125 mg/kg |  |  |  |  |  |
| O=NN(CCCl)C(=O)NC1CCCCC1 [CCNU, 1-(2-chloroethyl)-3-cyclohexyl-1-nitrosourea, reference compound] | 1 | 90 | 90 |  |  |  |  |  |  |  |  |  |  |  |  |
